Results: patent publication US10336697B2, “Spiro[cyclobutane-1,3′-indolin]-2′-one derivatives as bromodomain inhibitors” (Orion Corporation, priority 2015, dated 2019)

Molecular target: Bet BRD4 full length bromo-domain protein (Homo sapiens, UniProt O60885)
Assay: Bet bromodomain TR-FRET assay (displacement of acetyl histone peptide)
Format: binding
Settings: Bet BRD4 full length bromodomain protein, 300 nM acetyl histone peptide substrate, read-out: IC50

| Compound | IC50 [nM] |
| --- | --- |
| CN1CCC(NC(=O)c2cc(NC(=O)c3ccc(F)cc3F)cc3c2NC(=O)C32CCC2)CC1 [Compound 75, 5′-(2,4-Difluorobenzamido)-N-(1-methylpiperidin-4-yl)-2′-oxospiro[cyclobutane-1,3′-indoline]-7′-carboxamide] | > 1000 |
| O=C(Nc1cc(C2CC2)c2c(c1)C1(CCC1)C(=O)N2)c1ccc(F)cc1 [Compound 75a, N-(7′-Cyclopropyl-2′-oxospiro[cyclobutane-1,3′-indolin]-5′-yl)-4-fluorobenzamide] | 600 to 1000 |
| COC(=O)c1ccc(S(=O)(=O)Nc2cc(C(=O)NC3CCN(C)CC3)c3c(c2)C2(CCC2)C(=O)N3)c(F)c1 [Compound 80, Methyl 3-fluoro-4-(N-(7′-((1-methylpiperidin-4-yl)carbamoyl)-2′-oxospiro[cyclobutane-1,3′-indolin]-5′-yl)sulfamoyl)benzoate] | > 1000 |
| CN1CCC(NC(=O)c2cc(NS(=O)(=O)c3ccc(C#N)cc3F)cc3c2NC(=O)C32CCC2)CC1 [Compound 81, 5′-((4—Cyano-2-fluorophenyl)sulfonamido)-N-(1-methylpiperidin-4-yl)-2′-oxospiro[cyclobutane-1,3′-indoline]-7′-carboxamide] | > 1000 |
| CN1CCC(NC(=O)c2cc(NS(=O)(=O)C3CCCCC3)cc3c2NC(=O)C32CCC2)CC1 [Compound 83, 5′-(Cyclohexanesulfonamido)-N-(1-methylpiperidin-4-yl)-2′-oxospiro[cyclobutane-1,3′-indoline]-7′-carboxamide] | 600 to 1000 |
| CCOc1ccccc1S(=O)(=O)Nc1cc(C(=O)NC2CCN(C)CC2)c2c(c1)C1(CCC1)C(=O)N2 [Compound 84, 5′-(2-Ethoxyphenylsulfonamido)-N-(1-methylpiperidin-4-yl)-2′-oxospiro[cyclobutane-1,3′-indoline]-7′-carboxamide] | 600 to 1000 |
| CN1CCC(NC(=O)c2cc(NS(=O)(=O)N3CCCCC3)cc3c2NC(=O)C32CCC2)CC1 [Compound 85, N-(1-methylpiperidin-4-yl)-2′-oxo-5′-(piperidine-1-sulfon amido)spiro[cyclobutane-1,3′-indoline]-7′-carboxamide] | > 1000 |
| O=C1Nc2c(-c3ccc(O)nc3)cc(NS(=O)(=O)c3ccc(F)cc3F)cc2C12CCC2 [Compound 99, 2,4-Difluoro-N-(7′-(6-hydroxypyridin-3-yl)-2′-oxospiro [cyclobutane-1,3′-indolin]-5′-yl)benzenesulfonamide] | 600 to 1000 |
| O=C1Nc2c(-c3ccnc(O)c3)cc(NS(=O)(=O)c3ccc(F)cc3F)cc2C12CCC2 [Compound 100, 2,4-difluoro-N-(7′-(2-hydroxypyridin-4-yl)-2′-oxospiro[cyclobutane-1,3′-indolin]-5′-yl)benzenesulfonamide] | > 1000 |
| O=C1Nc2c(NC3CCNCC3F)cc(NS(=O)(=O)c3ccc(F)cc3F)cc2C12CCC2 (stereo not drawn) [Compound 102, 2,4-Difluoro-N-(7′-((3-fluoropiperidin-4-yl)amino)-2′-oxospiro[cyclobutane-1,3′-indolin]-5′-yl)benzenesulfonamide] | 600 to 1000 |
| CN1CCc2ccc(-c3cc(NS(=O)(=O)c4ccc(F)cc4F)cc4c3NC(=O)C43CCC3)cc2C1 [Compound 106, 2,4-Difluoro-N-(7′-(2-methyl-1,2,3,4-tetrahydroisoquinolin-7-yl)-2′-oxospiro[cyclobutane-1,3′-indolin]-5′-yl)benzenesulfonamide] | < 600 |
| COc1ccccc1S(=O)(=O)Nc1cc(C(C)c2ccccc2)c2c(c1)C1(CCC1)C(=O)N2 (stereo not drawn) [Compound 113, 2-Methoxy-N-(2′-oxo-7′-(1-phenylethyl)spiro [cyclobutane-1,3′-indolin]-5′-yl)benzenesulfonamide] | < 600 |
| CN1CCC(CCc2cc(NS(=O)(=O)c3ccc(F)cc3F)cc3c2NC(=O)C32CCC2)CC1 [Compound 116, 2,4-Difluoro-N-(7′-(2-(1-methylpiperidin-4-yl)ethyl)-2′-oxospiro-[cyclobutane-1,3′-indolin]-5′-yl)benzenesulfonamide] | < 600 |
| COc1ccccc1NC(=O)Nc1cc(C2CC2)c2c(c1)C1(CCC1)C(=O)N2 [Compound 121, 1-(7′—Cyclopropyl-2′-oxospiro[cyclobutane-1,3′-indolin]-5′-yl)-3-(2-methoxyphenyl)urea] | < 600 |

More lines, now with the values ahead:

| IC50 [nM] | Compound |
| --- | --- |
| < 600 | CN1CCC(NC(=O)c2cc(NS(=O)(=O)c3ccccc3F)cc3c2NC(=O)C32CCC2)CC1 [Compound 73, 5′-(2-Fluorophenylsulfonamido)-N-(1-methylpiperidin-4-yl)-2′-oxospiro[cyclobutane-1,3′-indoline]-7′-carboxamide] |
| < 600 | CN1CCC(NC(=O)c2cc(NS(=O)(=O)c3ccc(Br)cc3F)cc3c2NC(=O)C32CCC2)CC1 [Compound 74, 5′-((4-Bromo-2-fluorophenyl)sulfonamido)-N-(1-methylpiperidin-4-yl)-2′-oxospiro[cyclobutane-1,3′-indoline]-7′-carboxamide] |
| < 600 | O=C1C=C(Nc2cc(NS(=O)(=O)c3ccc(F)cc3F)cc3c2NC(=O)C32CCC2)CCN1 [Compound 76, 2,4-Difluoro-N-(2′-oxo-7′-((6-oxo-1,2,3 ,6-tetrahydropyridin-4-yl)-amino)spiro[cyclobutane-1,3′-indolin]-5′-yl)benzenesulfonamide] |
| < 600 | COc1ccccc1S(=O)(=O)Nc1cc(NC2=CC(=O)NCC2)c2c(c1)C1(CCC1)C(=O)N2 [Compound 77, 2-Methoxy-N-(2′-oxo-7′-((6-oxo-1,2,3,6-tetrahydropyridin-4-yl)amino)spiro[cyclobutane-1,3′-indolin]-5′-yl)benzenesulfonamide] |
| < 600 | COc1ccccc1S(=O)(=O)Nc1cc(NC2CCN(C)CC2F)c2c(c1)C1(CCC1)C(=O)N2 (stereo not drawn) [Compound 78, N-(7′-((3-fluoro-1-methylpiperidin-4-yl)amino)-2′-oxospiro [cyclobutane-1,3′-indolin]-5′-yl)-2-methoxy benzenesulfonamide] |
| < 600 | O=C1Nc2c(NC3CCNCC3)cc(NS(=O)(=O)c3ccc(F)cc3F)cc2C12CCC2 [Compound 79a, 2,4-Difluoro-N-(2′-oxo-7′-(piperidin-4-ylamino)spiro [cyclobutane-1,3′-indolin]-5′-yl)benzenesulfonamide] |
| < 600 | CN1CCC(NC(=O)c2cc(NS(=O)(=O)c3cc(F)ccc3F)cc3c2NC(=O)C32CCC2)CC1 [Compound 86, 5′-(2,5-Difluorophenylsulfonamido)-N-(1-methylpiperidin-4-yl)-2′-oxospiro[cyclobutane-1,3′-indoline]-7′-carboxamide] |
| < 600 | COc1ccccc1S(=O)(=O)Nc1cc(Cc2cccnc2)c2c(c1)C1(CCC1)C(=O)N2 [Compound 87, 2-Methoxy-N-(2′-oxo-7′-(pyridin-3-ylmethyl)spiro[cyclobutane-1,3′-indolin]-5′-yl)benzenesulfonamide] |
| < 600 | O=C1Nc2c(-c3ccc4c(c3)CNCC4)cc(NS(=O)(=O)c3ccc(F)cc3F)cc2C12CCC2 [Compound 88, 2,4-Difluoro-N-(2′-oxo-7′-(1,2,3,4-tetrahydroisoquinolin-7-yl)spiro-[cyclobutane-1,3′-indolin]-5′-yl)benzenesulfonamide] |
| < 600 | CN1CCC(c2cc(NS(=O)(=O)c3ccc(F)cc3F)cc3c2NC(=O)C32CCC2)CC1 [Compound 89, 2,4-Difluoro-N-(7′-(1-methylpiperidin-4-yl)-2′-oxospiro[cyclobutane-1,3′-indolin]-5′-yl)benzenesulfonamide] |
| < 600 | COc1ccc(S(=O)(=O)Nc2cc(C3CCNCC3)c3c(c2)C2(CCC2)C(=O)N3)c(OC)c1 [Compound 92, 2,4-Dimethoxy-N-(2′-oxo-7′-(piperidin-4-yl)spiro[cyclobutane-1,3′-indolin]-5′-yl)benzenesulfonamide] |
| < 600 | COc1ccc(S(=O)(=O)Nc2cc(Cc3ccccc3)c3c(c2)C2(CCC2)C(=O)N3)c(F)c1 [Compound 93, N-(7′-benzyl-2′-oxospiro[cyclobutane-1,3′-indolin]-5′-yl)-2-fluoro-4-methoxybenzenesulfonamide] |
| < 600 | COc1cc(F)ccc1S(=O)(=O)Nc1cc(Cc2ccccc2)c2c(c1)C1(CCC1)C(=O)N2 [Compound 94, N-(7′-benzyl-2′-oxospiro[cyclobutane-1,3′-indolin]-5′-yl)-4-fluoro-2-methoxybenzenesulfonamide] |
| < 600 | COc1ccc(S(=O)(=O)Nc2cc(Cc3cccc(F)c3)c3c(c2)C2(CCC2)C(=O)N3)c(F)c1 [Compound 95, 2-Fluoro-N-(7′-(3-fluorobenzyl)-2′-oxospiro[cyclobutane-1,3′-indolin]-5′-yl)-4-methoxybenzenesulfonamide] |
| < 600 | COc1cc(F)ccc1S(=O)(=O)Nc1cc(Cc2cccc(F)c2)c2c(c1)C1(CCC1)C(=O)N2 [Compound 96, 4-Fluoro-N-(7′-(3-fluorobenzyl)-2′-oxospiro[cyclobutane-1,3′-indolin]-5′-yl)-2-methoxybenzenesulfonamide] |
| < 600 | COc1ccc(S(=O)(=O)Nc2cc(C3CCN(C)CC3)c3c(c2)C2(CCC2)C(=O)N3)c(F)c1 [Compound 98, 2-Fluoro-4-methoxy-N-(7′-(1-methylpiperidin-4-yl)-2′-oxospiro-[cyclobutane-1,3′-indolin]-5′-yl)benzenesulfonamide] |
| < 600 | CC1(C)CNCCC1Nc1cc(NS(=O)(=O)c2ccc(F)cc2F)cc2c1NC(=O)C21CCC1 (stereo not drawn) [Compound 103, N-(7′-((3,3-dimethylpiperidin-4-yl)amino)-2′-oxospiro[cyclobutane-1,3′-indolin]-5′-yl)-2,4-difluorobenzenesulfonamide] |
| < 600 | O=C1CC(c2cc(NS(=O)(=O)c3ccc(F)cc3F)cc3c2NC(=O)C32CCC2)CCN1 (stereo not drawn) [Compound 104, 2,4-Difluoro-N-(2′-oxo-7′-(2-oxopiperidin-4-yl)spiro[cyclobutane-1,3′-indolin]-5′-yl)benzenesulfonamide] |
| < 600 | O=C1CCC(c2cc(NS(=O)(=O)c3ccc(F)cc3F)cc3c2NC(=O)C32CCC2)CN1 (stereo not drawn) [Compound 105, 2,4-Difluoro-N-(2′-oxo-7′-(6-oxopiperidin-3-yl)spiro [cyclobutane-1,3′-indolin]-5′-yl)benzenesulfonamide] |
